Patent US7153495B2, “Fragrance friendly and cost effective antiperspirant actives and method of making the same” (Reheis, Inc., priority 2004, dated 2006)

Experiments:
[1] = Fragrance compatibility study (colour formation with fragrances, Macbeth Color Spectrophotometer and visual); type: physicochemical; conditions: for ΔRG @ 45° C., Average / ΔYB @ 45° C., Average: average of 14 fragrances; for ΔRG @ 45° C., Average / ΔYB @ 45° C., Average / ΔRG @ 45° C. / ΔYB @ 45° C.: four weeks at 45° C.; for ΔRG @ 45° C. / ΔYB @ 45° C.: 0.75% perfume, 20% active
Description: It is known that fragrances in antiperspirants can discolor over time due to the acidic nature and high transition metals concentration especially Fe, Cr, Co, Mn, Cu, and Ni. It is also known that glycine can initiate Schiff base reaction with aldehydes present in fragrances. […] Fragrance dispersions were prepared as follows: 0.75% perfume, 1.0% Arlasolve 200, 20% antiperspirant active (on an anhydrous basis), q.s. DI water. Samples were stored at 45° C. for four weeks and were analyzed for color visually as well as using Macbeth Color Spectrophotometer. Aluminum zirconium tetrachlorohydrex was compared against aluminum zirconium penta and octa salts of Examples 1 and 2. Color was measured as ΔYB (yellow blue) and ΔRG (red green) for all the fourteen fragrances and three actives.

human volunteers = test: Controlled Hot Room Gravimetric Test of antiperspirant efficacy, suspension roll-on; type: in vivo; conditions: for Sweat reduction: anhydrous suspension roll-on, about 20% salt on anhydrous basis, hot room
Description: Aluminum zirconium octa salt of example 1 was tested for antiperspirant efficacy against most widely used aluminum zirconium tetrachlorohydrex in a suspension roll-on formulation using the standard hot room procedure. In the standard hot room procedure, human volunteers are subjected to thermal stress and gravimetric determination of the perspiration produced under the thermal stress with and without antiperspirant product applications are made. The data is subjected to analysis of covariance method described by Murphy and Levine (T. D. Murphy, et al., Analysis of Antiperspirant Efficacy Test Results, Journal of the Society of Cosmetic Chemists, Vol. 42, May 1991, pp. 167–197) and compared for percent sweat reduction capacity. Antiperspirancy tests were conducted by an outside independent lab employing “Controlled Hot Room Gravimetric Test” in conformance with FDA guidelines.
The anhydrous suspension roll-ons were prepared using an aluminum zirconium salt concentration of about 20% on an anhydrous basis (about 25% on weight basis) and approximate concentration of other ingredients were Dow Coming 245, 70.5%, Bentone 38, 2.70%, SDA Alcohol 40 (95% alcohol+5% water) 1.8%.
Aluminum zirconium tetrachlorohydrex powder used for comparison had the following chemical analysis. % Al 14.8, % Zr 14.5, % Cl 18.36, % Glycine 11.7, Al/Zr atomic ratio 3.52 and M/Cl atomic ratio of 1.36, % A.S. 77.46.
Sweat reduction values for the octa and tetra salts were 48% and 52% respectively. Results of this study established that amino acid free cost effective aluminum zirconium salts could be prepared without sacrificing efficacy.

Row | Substance | ΔRG @ 45° C., Average [1] | ΔYB @ 45° C., Average [1] | ΔRG @ 45° C. ([1]; fragrance AC 10278/498988) | ΔYB @ 45° C. ([1]; fragrance AC 10278/498988) | ΔRG @ 45° C. ([1]; fragrance Bell J-8381) | ΔYB @ 45° C. ([1]; fragrance Bell J-8381) | ΔRG @ 45° C. ([1]; fragrance Drom99-920) | ΔYB @ 45° C. ([1]; fragrance Drom99-920) | ΔRG @ 45° C. ([1]; fragrance FFS 52847) | ΔYB @ 45° C. ([1]; fragrance FFS 52847) | ΔRG @ 45° C. ([1]; fragrance Firm. 430–507) | ΔYB @ 45° C. ([1]; fragrance Firm. 430–507) | ΔRG @ 45° C. ([1]; fragrance Noville AN 119738) | ΔYB @ 45° C. ([1]; fragrance Noville AN 119738) | ΔRG @ 45° C. ([1]; fragrance Q-26238) | ΔYB @ 45° C. ([1]; fragrance Q-26238) | ΔRG @ 45° C. ([1]; fragrance Q-26239) | ΔYB @ 45° C. ([1]; fragrance Q-26239) | ΔRG @ 45° C. ([1]; fragrance Q-26240) | ΔYB @ 45° C. ([1]; fragrance Q-26240) | other results
1 | aluminum zirconium octachloro-hydrate [Example 1] | 6.84 | 8.2 | 1.86 | 3.77 | 2.88 | 5.56 | 2.28 | 4.45 | 6.37 | 6.76 | 12.82 | 14.63 | 11.91 | 12.23 | 7.45 | 8.49 | 6.65 | 9.40 | 4.07 | 5.04 | discoloration compared with tetrasalt ([1]; 14 fragrances, four weeks of shelf aging at 45° C., visual and instrumental): less discoloration; ΔRG @ 45° C. ([1]; fragrance Q-26241): 3.76; ΔYB @ 45° C. ([1]; fragrance Q-26241): 7.13; ΔRG @ 45° C. ([1]; fragrance Q-26242): 6.54; ΔYB @ 45° C. ([1]; fragrance Q-26242): 9.77; ΔRG @ 45° C. ([1]; fragrance Quest Q-14072): 10.05; ΔYB @ 45° C. ([1]; fragrance Quest Q-14072): 9.61; ΔRG @ 45° C. ([1]; fragrance SM 25105D): 8.65; ΔYB @ 45° C. ([1]; fragrance SM 25105D): 8.57; ΔRG @ 45° C. ([1]; fragrance Takasago RM 1595): 10.51; ΔYB @ 45° C. ([1]; fragrance Takasago RM 1595): 10.02; adverse experiences (human volunteers; 37 female subjects, suspension roll-on): No adverse experiences; difference in the reduction in perspiration versus aluminum zirconium tetrachlorohydrex (human volunteers; 37 female subjects, p=0.127): no statistically significant difference; Sweat reduction (human volunteers; 37 female subjects): 48%
2 | aluminum zirconium tetrachlorohydrex [reference compound] | 9.48 | 11.94 | 4.67 | 7.12 | 4.69 | 7.45 | 5.55 | 9.69 | 6.48 | 8.63 | 18.73 | 20.27 | 16.50 | 16.28 | 8.67 | 11.51 | 8.24 | 12.12 | 8.68 | 10.51 | ΔRG @ 45° C. ([1]; fragrance Q-26241): 7.98; ΔYB @ 45° C. ([1]; fragrance Q-26241): 11.29; ΔRG @ 45° C. ([1]; fragrance Q-26242): 9.21; ΔYB @ 45° C. ([1]; fragrance Q-26242): 14.50; ΔRG @ 45° C. ([1]; fragrance Quest Q-14072): 14.66; ΔYB @ 45° C. ([1]; fragrance Quest Q-14072): 16.59; ΔRG @ 45° C. ([1]; fragrance SM 25105D): 9.49; ΔYB @ 45° C. ([1]; fragrance SM 25105D): 11.76; ΔRG @ 45° C. ([1]; fragrance Takasago RM 1595): 9.14; ΔYB @ 45° C. ([1]; fragrance Takasago RM 1595): 9.49; Sweat reduction (human volunteers; 37 female subjects): 52%; adverse experiences (human volunteers; in vivo): No adverse experiences
